# Test system: healthy subjects
# Experiment: Phase I clinical trial, multiple-dose groups (once a day, 7 consecutive days): uric acid index before and after treatment
# Format: in vivo, human
# Conditions: for Uric acid (UA) Mean (standard deviation) / Uric acid (UA) Median / Uric acid (UA) Minimum value / Uric acid (UA) maximum value / Uric acid (UA) Changes over baseline at last visit (on day 14), Mean (standard deviation) / Uric acid (UA) Changes over baseline at last visit (on day 14), Median / Uric acid (UA) Changes over baseline at last visit (on day 14), Minimum value / Uric acid (UA) Changes over baseline at last visit (on day 14), maximum value / Uric acid (UA) Changes over baseline on day 2, Mean (standard deviation) / Uric acid (UA) Changes over baseline on day 2, Median / Uric acid (UA) Changes over baseline on day 2, Minimum value / Uric acid (UA) Changes over baseline on day 2, maximum value / Uric acid (UA) Changes over baseline on day 11, Mean (standard deviation) / Uric acid (UA) Changes over baseline on day 11, Median / Uric acid (UA) Changes over baseline on day 11, Minimum value / Uric acid (UA) Changes over baseline on day 11, maximum value / Uric acid (UA) Changes over baseline on days 4-6, Mean (standard deviation) / Uric acid (UA) Changes over baseline on days 4-6, Median / Uric acid (UA) Changes over baseline on days 4-6, Minimum value / Uric acid (UA) Changes over baseline on days 4-6, maximum value: N = 9
# Method: The changes of uric acid levels in subjects in single-dose and multi-dose groups of Compound I are shown in FIG. 1A (single dose of 6 mg and single dose of 10 mg), FIG. 1B (single dose of 20 mg and single dose of 30 mg), and FIG. 2 (multi-dose of 10 mg and multi-dose of 20 mg). The corresponding results are also shown in Tables 1.1, 1.2, 1.3, and 2.1, and tables 2.2, 2.3, and 2.4.
# [1] = Baseline, multiple dose 10 mg once a day 7 days
# [2] = Baseline, multiple dose 20 mg once a day 7 days
# [3] = Day 2, multiple dose 10 mg once a day 7 days
# [4] = Day 2, multiple dose 20 mg once a day 7 days
# [5] = Day 11, multiple dose 10 mg once a day 7 days
# [6] = Day 11, multiple dose 20 mg once a day 7 days
# [7] = Days 4-6, multiple dose 10 mg once a day 7 days
# [8] = Days 4-6, multiple dose 20 mg once a day 7 days
# [9] = Last visit (day 14), multiple dose 10 mg once a day 7 days
# [10] = Last visit (day 14), multiple dose 20 mg once a day 7 days
# [11] = multiple dose 10 mg once a day 7 days
# [12] = multiple dose 20 mg once a day 7 days
structure (smiles),measurement,setting,value
"COc1cccc2c1ncc1c(=O)n(C3CCC(C(=O)O)CC3)c(=O)n(-c3cccc(Cl)c3)c12 (centres unmarked) [Compound I, 4-[1-(3-chlorophenyl)-7-methoxy-2,4-dioxo-pyrimido[5,4-c]quinolin-3-yl]cyclohexanecarboxylic acid]",Uric acid (UA) Mean (standard deviation),[1],314.4 (84.59) μmol/L
same,Uric acid (UA) Median,[1],290.0 µmol/L
same,Uric acid (UA) Minimum value,[1],215 µmol/L
same,Uric acid (UA) maximum value,[1],452 µmol/L
same,Uric acid (UA) Mean (standard deviation),[2],337.2 (50.38) μmol/L
same,Uric acid (UA) Median,[2],349.0 µmol/L
same,Uric acid (UA) Minimum value,[2],259 µmol/L
same,Uric acid (UA) maximum value,[2],400 µmol/L
same,Uric acid (UA) Mean (standard deviation),[3],254.9 (74.41) μmol/L
same,Uric acid (UA) Median,[3],248.0 µmol/L
same,Uric acid (UA) Minimum value,[3],155 µmol/L
same,Uric acid (UA) maximum value,[3],397 µmol/L
same,Uric acid (UA) Mean (standard deviation),[4],221.6 (63.82) μmol/L
same,Uric acid (UA) Median,[4],216.0 µmol/L
same,Uric acid (UA) Minimum value,[4],142 µmol/L
same,Uric acid (UA) maximum value,[4],373 µmol/L
same,Uric acid (UA) Mean (standard deviation),[5],325.1 (67.57) μmol/L
same,Uric acid (UA) Median,[5],314.0 µmol/L
same,Uric acid (UA) Minimum value,[5],222 µmol/L
same,Uric acid (UA) maximum value,[5],439 µmol/L
same,Uric acid (UA) Mean (standard deviation),[6],341.8 (58.10) μmol/L
same,Uric acid (UA) Median,[6],323.0 µmol/L
same,Uric acid (UA) Minimum value,[6],262 µmol/L
same,Uric acid (UA) maximum value,[6],460 µmol/L
same,Uric acid (UA) Mean (standard deviation),[7],201.8 (58.87) μmol/L
same,Uric acid (UA) Median,[7],204.0 µmol/L
same,Uric acid (UA) Minimum value,[7],119 µmol/L
same,Uric acid (UA) maximum value,[7],307 µmol/L
same,Uric acid (UA) Mean (standard deviation),[8],158.0 (51.31) μmol/L
same,Uric acid (UA) Median,[8],140.0 µmol/L
same,Uric acid (UA) Minimum value,[8],105 µmol/L
same,Uric acid (UA) maximum value,[8],267 µmol/L
same,Uric acid (UA) Mean (standard deviation),[9],326.9 (74.58) μmol/L
same,Uric acid (UA) Median,[9],337.0 µmol/L
same,Uric acid (UA) Minimum value,[9],219 µmol/L
same,Uric acid (UA) maximum value,[9],422 µmol/L
same,Uric acid (UA) Mean (standard deviation),[10],378.4 (37.55) μmol/L
same,Uric acid (UA) Median,[10],376.0 µmol/L
same,Uric acid (UA) Minimum value,[10],309 µmol/L
same,Uric acid (UA) maximum value,[10],440 µmol/L
same,uric acid level on the following days (days 4-6),multi-dose groups,continuous decrease
same,uric acid level the next day after administration,"multi-dose groups, certain dose dependence",decreases obviously
same,"Uric acid (UA) Changes over baseline at last visit (on day 14), Mean (standard deviation)",[11],12.4 (37.22) μmol/L
same,"Uric acid (UA) Changes over baseline at last visit (on day 14), Median",[11],6.0 µmol/L
same,"Uric acid (UA) Changes over baseline at last visit (on day 14), Minimum value",[11],-45 µmol/L
same,"Uric acid (UA) Changes over baseline at last visit (on day 14), maximum value",[11],58 µmol/L
same,"Uric acid (UA) Changes over baseline on day 2, Mean (standard deviation)",[11],−59.6 (40.77) μmol/L
same,"Uric acid (UA) Changes over baseline on day 2, Median",[11],-50.0 µmol/L
same,"Uric acid (UA) Changes over baseline on day 2, Minimum value",[11],-135 µmol/L
same,"Uric acid (UA) Changes over baseline on day 2, maximum value",[11],6 µmol/L
same,"Uric acid (UA) Changes over baseline on day 11, Mean (standard deviation)",[11],10.7 (31.86) μmol/L
same,"Uric acid (UA) Changes over baseline on day 11, Median",[11],15.0 µmol/L
same,"Uric acid (UA) Changes over baseline on day 11, Minimum value",[11],-52 µmol/L
same,"Uric acid (UA) Changes over baseline on day 11, maximum value",[11],60 µmol/L
same,"Uric acid (UA) Changes over baseline on days 4-6, Mean (standard deviation)",[11],−112.7 (57.68) μmol/L
same,"Uric acid (UA) Changes over baseline on days 4-6, Median",[11],-118.0 µmol/L
same,"Uric acid (UA) Changes over baseline on days 4-6, Minimum value",[11],-234 µmol/L
same,"Uric acid (UA) Changes over baseline on days 4-6, maximum value",[11],-35 µmol/L
same,"Uric acid (UA) Changes over baseline at last visit (on day 14), Mean (standard deviation)",[12],41.2 (44.32) μmol/L
same,"Uric acid (UA) Changes over baseline at last visit (on day 14), Median",[12],40.0 µmol/L
same,"Uric acid (UA) Changes over baseline at last visit (on day 14), Minimum value",[12],-11 µmol/L
same,"Uric acid (UA) Changes over baseline at last visit (on day 14), maximum value",[12],135 µmol/L
same,"Uric acid (UA) Changes over baseline on day 2, Mean (standard deviation)",[12],−115.7 (55.40) μmol/L
same,"Uric acid (UA) Changes over baseline on day 2, Median",[12],-142.0 µmol/L
same,"Uric acid (UA) Changes over baseline on day 2, Minimum value",[12],-184 µmol/L
same,"Uric acid (UA) Changes over baseline on day 2, maximum value",[12],-26 µmol/L
same,"Uric acid (UA) Changes over baseline on day 11, Mean (standard deviation)",[12],4.6 (43.38) μmol/L
same,"Uric acid (UA) Changes over baseline on day 11, Median",[12],2.0 µmol/L
same,"Uric acid (UA) Changes over baseline on day 11, Minimum value",[12],-52 µmol/L
same,"Uric acid (UA) Changes over baseline on day 11, maximum value",[12],67 µmol/L
same,"Uric acid (UA) Changes over baseline on days 4-6, Mean (standard deviation)",[12],−179.2 (54.55) μmol/L
same,"Uric acid (UA) Changes over baseline on days 4-6, Median",[12],-175.0 µmol/L
same,"Uric acid (UA) Changes over baseline on days 4-6, Minimum value",[12],-260 µmol/L
same,"Uric acid (UA) Changes over baseline on days 4-6, maximum value",[12],-108 µmol/L

# Reference: US20250000865A1, “COMPOUND FOR REDUCING URIC ACID LEVELS” (NEWSOARA BIOPHARMA CO., LTD., priority 2021, published 2025)
